Each structure is given as a SMILES string.

The test system of data set [1] is gp46 mRNA in pHSC. Nature of the data set: In vitro (pHSC) gp46 knockdown by siRNA liposome formulations, qRT-PCR. It is filed as cell-based. The note with it: @ 20 nM. The protocol: In Vitro (pHSC, Gp46 KD @ 20 nM) Efficacy
PHSCs in 96-well plate were incubated with formulation that composed of either ionizable lipid formulation C104, ionizable lipid formulation Tu104, or combination formulations with different ratio of ionizable lipids (C104:Tu104). After 30 minutes, medium was replaced with fresh growth medium. Forty eight hours later, cells were lysed and gp46 and GAPDH mRNA levels measured by quantitative RT-PCR (TaqMan®) assay, and gp46 levels were normalized to GAPDH levels. Normalized gp46 levels were expressed as percent of mock control cells. Error bars indicate standard deviations (n=3). Results are depicted in FIG. 1.
Transfection method is same for LX-2 and pHSCs. The liposome formulations or lipoplex formulations of the description were mixed with growth medium at desired concentrations. 100 μl of the mixture was added to the cells in 96-well plate and cells were incubated for 30 min at 37° C. in the incubator with 5% CO2. After 30 min, medium was replaced with fresh growth medium. After 48 h of transfection, cells were processed using Cell-to-Ct lysis reagents (Applied Biosystems) according to the manufacturer's instructions.
HSP47 and GAPDH TaqMan®® assays and One-Step RT-PCR master mix were purchased from Applied Biosystems. Each PCR reaction contained the following composition: One-step RT-PCR mix 5 μl, TaqMan® RT enzyme mix 0.25 μl, TaqMan® gene expression assay probe (HSP47) 0.25 μl, TaqMan® gene expression assay probe (GAPDH) 0.5 μl, RNase free water 3.25 μl, Cell lysate 0.75 μl, Total volume of 10 μl. GAPDH was used as endogenous control for the relative quantification of HSP47 mRNA levels. Quantitative RT-PCR was performed in ViiA 7 realtime PCR system (Applied Biosciences). All values were normalized to the average HSP47 expression of the mock transfected cells and expressed as percentage of HSP47 expression compared to mock.

In data set [2] the test system is gp46 mRNA in pHSC. The data set is described as above. It is filed as cell-based.
Data set [3] has as its system gp46 mRNA. Nature of the data set: In vivo (DMNQ) efficacy, short-term liver damage model, liver gp46 mRNA. Also on record: species or system male Sprague-Dawley rats. The note with it: single IV dose, liver 24 h after. The protocol: In vivo activity of target formulation was evaluated in the short-term liver damage model (referred to as the Quick Model or DMNQ). In this model, the short-term liver damage induced by treatment with a hepatotoxic agent such as dimethylnitrosamine (DMN) is accompanied by the elevation of gp46 mRNA levels. To induce these changes, male Sprague-Dawley rats were injected intraperitoneally with DMN on six consecutive days. At the end of the DMN treatment period, the animals were randomized to groups based upon individual animal body weight. Formulations was administered as a single IV dose, one hour after the last injection of DMN. Twenty four hours after, liver lobes were excised and both gp46 and MRPL19 mRNA levels were determined by quantitative RT-PCR (TaqMan) assay. mRNA levels for gp46 were normalized to MRPL19 levels. Results are depicted in FIG. 4. Several combinations of ionizable:cationic lipids achieved 50% reduction in gene expression for a single, 0.5 mg per kg of animal body weight, dose of encapsulated siRNA.

The test system of data set [4] is HepG2 cells. Nature of the data set: HepG2 cytotoxicity assay (CellTiter-Glo). It is filed as cell-based, human. The note with it: HepG2 @ 200 nM, 48 h post formulation addition, n=3. The protocol: In Vitro Toxicology Data, In Vitro Cytotoxicity (HepG2 @ 200 nM)
HepG2 cells, an adherent cell line derived from human hepatocellular carcinoma, was cultured in MEM/EBSS (Hyclone, Logan, Utah, Cat# SH30024.01) supplemented with 10% FBS (Hyclone, Logan, Utah Cat# SH30910). HepG2 cells were seeded in 96-well Optilux black plates (BD Falcon, Cat # BD353220) at 5000 cells/well overnight. Formulations were added to each well to final indicated siRNA concentration (n=3). At 48 h post formulation addition, cell viability was determined using CellTiter-Glo Luminescent Cell Viability Assay Kit (Promega, Cat #G7572) following manufacture's instruction. Chemiluminescent signal were measured on Clarity Luminescence Microplate Reader (502-Biotek, Winooski, Vt.). Viability was calculated based on % of chemiluminescent signal in formulation treated well normalized against mock treated wells.

Consider `CCCCCCCCCCCCCC(=O)OCCN(CCOC(=O)CCCCCCCCCCCCC)C(=O)OCCCN(C)C` [CB104, (((3-(dimethylamino)propoxy)carbonyl)azanediyl)bis(ethane-2,1-diyl) ditetradecanoate], for which, in data set [1], the “in vitro (pHSC) % KD” value is on record as 42% @ 20 nM.
For `CCCCCCCC/C=C\CCCCCCCC(=O)OCCN(CCOC(=O)CCCCCCC/C=C\CCCCCCCC)C(=O)CN(C)C` [INT-4, (Z)-((2-(dimethylamino)acetyl)azanediyl)bis(ethane-2,1-diyl) dioleate], the “in vitro (pHSC) % KD” value in data set [2] (@ 50 nM) is on record as 70% @ 50 nM.
For the compound `CCCCCCCCCCCCCC(=O)OCCN(CCOC(=O)CCCCCCCCCCCCC)C(=O)CSCCN(C)C` [Lipid S104, ((2-((2-(dimethylamino)ethyl)thio)acetyl)azanediyl)bis(ethane-2,1-diyl) ditetradecanoate], the “in vivo (rat DMNQ) % KD” value in data set [3] (@ 0.5 mpk) is given as 52% @ 0.5 mpk. Further, the “in vitro (pHSC) % KD” value in data set [2] (@ 50 nM) amounted to 68% @ 50 nM. Also, in data set [4], the “% viability” value is listed as 52%.
Turning to `CCCCCCCC/C=C\CCCCCCCC(=O)OCCN(CCOC(=O)CCCCCCC/C=C\CCCCCCCC)C(=O)SCCN(C)C` [TU104-DO, (Z)-((((2-(dimethylamino)ethyl)thio)carbonyl)azanediyl)bis(ethane-2,1-diyl) dioleate], in data set [1], the “in vitro (pHSC) % KD” value worked out at 81% @ 20 nM. Further, the “in vivo (rat DMNQ) % KD” value in data set [3] (@ 0.25 mpk) worked out at 40% @ 0.25 mpk.
On to `CCCCCCCC/C=C\CCCCCCCC(=O)OCCN(CCOC(=O)CCCCCCC/C=C\CCCCCCCC)C(=O)CCCN(C)C` [i-Prop- DODC, (Z)-((4-(dimethylamino)butanoyl)azanediyl)bis(ethane-2,1-diyl) dioleate], for which the results for the “in vitro (pHSC) % KD” value in data set [1] and in data set [2] (@ 50 nM) were 27% @ 20 nM and 55% @ 50 nM, respectively.
Regarding `CCCCCCCC/C=C\CCCCCCCC(=O)OCCN(CCOC(=O)CCCCCCC/C=C\CCCCCCCC)C(=O)CCCCN(C)C` [C104-DO, (Z)-((5-(dimethylamino)pentanoyl)azanediyl)bis(ethane-2,1-diyl) dioleate], in data set [1], the “in vitro (pHSC) % KD” value is on record as 32% @ 20 nM.
In the case of `CCCCCCCCCCCCCC(=O)OCCN(CCOC(=O)CCCCCCCCCCCCC)C(=O)COC(=O)CCCN(C)C` [HEDC- M1, ((2-((4-(dimethylamino)butanoyl)oxy)acetyl)azanediyl)bis(ethane-2,1-diyl) ditetradecanoate], in data set [1], the “in vitro (pHSC) % KD” value came out at 53% @ 20 nM.
As for `CCCCCCCCCCCCCC(=O)OCCN(CCOC(=O)CCCCCCCCCCCCC)C(=O)COCCN(C)C` [Lipid O104, ((2-(2-(dimethylamino)ethoxy)acetyl)azanediyl)bis(ethane-2,1-diyl) ditetradecanoate], the “in vitro (pHSC) % KD” value in data set [1] turned out to be 55% @ 20 nM.
`CCCCCCCC/C=C\CCCCCCCC(=O)OCCCN(CCCOC(=O)CCCCCCC/C=C\CCCCCCCC)C(=O)CN(C)C` [i-Pr- DODC, (Z)-((2-(dimethylamino)acetyl)azanediyl)bis(propane-3,1-diyl) dioleate]: in data set [2] (@ 50 nM), the “in vitro (pHSC) % KD” value came out at 60% @ 50 nM.
Same read-out and setting: the result for `CCCCCCCCCCCCCC(=O)OCCN(CCOC(=O)CCCCCCCCCCCCC)C(=O)CCN(C)C` [i-Et-DC, ((3-(dimethylamino)propanoyl)azanediyl)bis(ethane-2,1-diyl) ditetradecanoate] reads 65% @ 50 nM.
In the case of `CCCCCCCCCCCCCC(=O)OCCCN(CCCOC(=O)CCCCCCCCCCCCC)C(=O)CN(C)C` [i-Pr-DC, ((2-(dimethylamino)acetyl)azanediyl)bis(propane-3,1-diyl) ditetradecanoate], the “in vitro (pHSC) % KD” value in data set [2] (@ 50 nM) came out at 53% @ 50 nM.
On to `CCCCCCCCCCCCCC(=O)OCCN(CCOC(=O)CCCCCCCCCCCCC)C(=O)CCCN(C)C` [i-Prop- DC, ((4-(dimethylamino)butanoyl)azanediyl)bis(ethane-2,1-diyl) ditetradecanoate], for which the “in vitro (pHSC) % KD” value worked out at 54% @ 20 nM in data set [1] and 55% @ 50 nM in data set [2] (@ 50 nM).
Take `CCCCCCCCCCCCCC(=O)OCCN(CCOC(=O)CCCCCCCCCCCCC)C(=O)c1ccc(CN(C)C)s1` [Lipid T104, ((5-((dimethylamino)methyl)thiophene-2-carbonyl)azanediyl)bis(ethane-2,1-diyl) ditetradecanoate]: in data set [1], the “in vitro (pHSC) % KD” value turned out to be 58% @ 20 nM.
Take `CCCC/C=C/CCCCCCCC(=O)OCCN(CCOC(=O)CCCCCCC/C=C/CCCC)C(=O)CSCCN(C)C` [S104-DMO, (9Z,9′Z)-((2-((2-(dimethylamino)ethyl)thio)acetyl)azanediyl)bis(ethane-2,1-diyl) bis(tetradec-9-enoate)]: in data set [2] (@ 10 nM), the “in vitro (pHSC) % KD” value turned out to be 40% @ 10 nM.
In the case of `CCCCCCCC/C=C\CCCCCCCC(=O)OCCN(CCOC(=O)CCCCCCC/C=C\CCCCCCCC)C(=O)CSCCN(C)C` [S104-DO, (Z)-((2-((2-(dimethylamino)ethyl)thio)acetyl)azanediyl)bis(ethane-2,1-diyl) dioleate], the “in vitro (pHSC) % KD” value in data set [1] worked out at 78% @ 20 nM. In addition, the “in vivo (rat DMNQ) % KD” value in data set [3] (@ 0.5 mpk) is recorded as 65% @ 0.5 mpk.
Regarding `CCCCCCCCCCCCCC(=O)OCCN(CCOC(=O)CCCCCCCCCCCCC)C(=O)CCCCN(C)C` [Lipid C104, ((5-(dimethylamino)pentanoyl)azanediyl)bis(ethane-2,1-diyl) ditetradecanoate], the “in vitro (pHSC) % KD” value in data set [1] came out at 53% @ 20 nM. Further, the “in vivo (rat DMNQ) % KD” value in data set [3] (@ 0.5 mpk) amounted to 75% @ 0.5 mpk.
For the compound `CCCCCCCCCCCCCC(=O)OCCN(CCOC(=O)CCCCCCCCCCCCC)C(=O)SCCN(C)C` [TU104, ((((2-(dimethylamino)ethyl)thio)carbonyl)azanediyl)bis(ethane-2,1-diyl) ditetradecanoate], the “in vitro (pHSC) % KD” value in data set [1] is given as 76% @ 20 nM.
As to `CCCCCCCCCCCCCC(=O)OCCN(CCOC(=O)CCCCCCCCCCCCC)C(=O)CS(=O)(=O)CCN(C)C` [SO2-S104, ((2-((2-(dimethylamino)ethyl)sulfonyl)acetyl)azanediyl)bis(ethane-2,1-diyl) ditetradecanoate], the “in vitro (pHSC) % KD” value in data set [1] is 75% @ 20 nM. For the same compound, the “in vivo (rat DMNQ) % KD” value in data set [3] (@ 0.5 mpk) was determined as 18% @ 0.5 mpk.
Take `CCCCCCCCCCCCCC(=O)OCCN(CCOC(=O)CCCCCCCCCCCCC)C(=O)CN(C)C` [i-DC, ((2-(dimethylamino)acetyl)azanediyl)bis(ethane-2,1-diyl) ditetradecanoate]: the “in vitro (pHSC) % KD” value in data set [2] (@ 200 nM) is reported as 89% @ 200 nM.
For `CCCCCCCC/C=C\CCCCCCCC(=O)OCCN(CCOC(=O)CCCCCCC/C=C\CCCCCCCC)C(=O)CCN(C)C` [i-Et- DODC, (Z)-((3-(dimethylamino)propanoyl)azanediyl)bis(ethane-2,1-diyl) dioleate], the “in vitro (pHSC) % KD” value in data set [2] (@ 50 nM) turned out to be 43% @ 50 nM.
